US20250381242A1 (INVAIO SCIENCES, INC., priority 2024, published 2025)
No end group written: not given here.

Columns and labels:
[1] = test system: E. coli; assay: Bacterial growth inhibition by OD600 absorbance, E. coli; assay type: cell-based, E. coli (DH5-alpha); conditions: peptide 10 μM, 24 hours at 37° C., OD 600 nm
Method in brief: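 Percent inhibition was calculated from initial and 24 h OD600 readings against DMSO (0.1%) and antibiotic controls. Cultures received 10 μM peptide and were incubated at 30° C. (X. citri) or 37° C. (E. coli).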

[2] = test system: X. citri; assay: Bacterial growth inhibition by OD600 absorbance, X. citri; assay type: cell-based, X. citri subsp. citri (ATCC 49118); conditions: peptide 10 μM, 24 hours at 30° C., OD 600 nm
[3] = test system: A. tumefaciens; conditions: 24 h, 10 μM
[4] = test system: E. amylovora; conditions: 24 h, 10 μM
[5] = test system: L. crescens; conditions: 10 μM

Row | Sequence | growth inhibition, E. coli [1] | growth inhibition, X. citri [2] | growth inhibition, A. tumefaciens [3] | growth inhibition, E. amylovora [4] | growth inhibition, L. crescens [5]
1 | GWWRRTVDKVRNAGRKVAGFASKACGALGH [compound 13] | 100.00% | 100.00% | 100.00% | 100.00% | 100.00%
2 | GYNYAKKLANLAKKFANALW [compound 66] | <90% | 100.00% | 99.99% | 97.23% | <90%
3 | IKKILSKIKKLLK [compound 122] | <90% | 100.00% | 97.95% | 93.74% | <90%
4 | INWKKIASIGKEVLKAL [compound 94] | <90% | <90% | 100.00% | 100.00% | <90%
5 | IRIRIRPIRIRIRP [compound 98] | 99.61% | <90% | 99.18% | 99.58% | <90%
6 | IWSFLIKAATKLLPSLFGGGKKDS [compound 39] | 100.00% | 100.00% | <90% | <90% | 92.47%
7 | KFFKRLLKSVRRAVKKFRKKPRLIGLSTLL [compound 8] | 100.00% | 100.00% | 99.88% | 100.00% | <90%
8 | KFLKKAKKFGKAFVKIL [compound 83] | <90% | <90% | 99.31% | 100.00% | <90%
9 | KFWSLLKKALRLWANVL [compound 76] | 100.00% | 100.00% | 100.00% | 100.00% | 99.76%
10 | KILKRLAAKIKKIL [compound 113] | <90% | 100.00% | <90% | <90% | <90%
11 | KKFLHSAKKWLKAFVKLFKNW [compound 33] | 100.00% | 100.00% | 100.00% | <90% | 96.12%
12 | KKIGKKAAKKVIVKAIQAIV [compound 73] | <90% | <90% | <90% | 99.94% | <90%
13 | KKLIKVFAKGFKKAKKLFKGIG [compound 52] | <90% | 100.00% | 100.00% | 100.00% | <90%
14 | KLLKKAGKLLKKAGKLLKKAG [compound 71] | <90% | 100.00% | 100.00% | 100.00% | <90%
15 | KNWKGIAGMAKKLLGKNWKLM [compound 59] | <90% | 100.00% | 99.61% | 100.00% | <90%
16 | KWAVRIIRKFIKGFIS [compound 88] | 96.20% | <90% | 100.00% | 100.00% | <90%
17 | KWKSFIKKLTKKFLHSAKKF [compound 49] | <90% | 100.00% | 100.00% | 100.00% | <90%
18 | KWKSFIKNLEKVLKKGPILANLVSIV [compound 23] | 100.00% | 100.00% | 100.00% | 100.00% | 99.03%
19 | KWLKKWLKKWLK [compound 103] | 98.34% | <90% | 100.00% | 100.00% | <90%
20 | KWVKKWVKKWVK [compound 110] | <90% | 100.00% | <90% | 98.51% | <90%

Row | Sequence | growth inhibition, E. coli [1] | growth inhibition, X. citri [2] | growth inhibition, A. tumefaciens [3] | growth inhibition, E. amylovora [4] | growth inhibition, L. crescens [5]
21 | KWYKKWYKKWYKKWYK [compound 54] | 100.00% | 100.00% | 99.49% | 100.00% | <90%
22 | LHRLVKLVAALLRGYASKVDTH [compound 53] | 100.00% | 100.00% | 100.00% | 100.00% | <90%
23 | LNWGALLKHLLK [compound 139] | <90% | <90% | 100.00% | 100.00% | <90%
24 | LRFLKKALKKLF [compound 129] | <90% | <90% | 98.87% | 93.29% | <90%
25 | LRFLKKILKHLF [compound 120] | 100.00% | 100.00% | 100.00% | 100.00% | <90%
26 | LVQRGRFGRFLKKVRRFIPKVIIAAQIGSRFG [compound 6] | 99.36% | 100.00% | 100.00% | 98.64% | <90%
27 | QKRPRVRLSAWKKIWKPGIKKWIK [compound 21] | <90% | 100.00% | 96.97% | 100.00% | <90%
28 | RFRRLFRIRVRVLKKI [compound 72] | <90% | 100.00% | 100.00% | 100.00% | <90%
29 | RKYVRFLHRWVKYFRAYL [compound 47] | 99.75% | <90% | <90% | <90% | <90%
30 | RWKIFKKPFKISIHL [compound 90] | 98.69% | <90% | 100.00% | 100.00% | <90%
31 | SWKSMAKKLKEYMEKLKQRA [compound 50] | <90% | <90% | 99.59% | 100.00% | <90%
32 | WFGHLYRGITKVVKHVHGLLKG [compound 40] | 100.00% | 100.00% | 100.00% | 100.00% | <90%
33 | WFGKLYRGITSVVKKVKGLLSG [compound 55] | 100.00% | 100.00% | 100.00% | 100.00% | <90%
34 | WIKIWKKIIKKWKK [compound 91] | <90% | <90% | 98.97% | 100.00% | <90%
35 | WKKIWKKIWKPGIKKWIKKWIK [compound 24] | 100.00% | 99.69% | 97.97% | 98.38% | <90%
36 | WKLKWKLKWKLK [compound 104] | <90% | <90% | 100.00% | 99.91% | <90%
37 | WLNALLHHGYKRKFH [compound 93] | <90% | <90% | <90% | <90% | <90%
38 | WLSKTAKKLWLSKTAKKLWLSKTAKKL [compound 15] | <90% | 96.25% | <90% | <90% | <90%
39 | WWKAAAKAAAKWW [compound 117] | <90% | 100.00% | 99.97% | 99.79% | <90%
